Test results: the supplement of paper PMC10307832

Legend:
Experiment in all cases: relative viability (nuclei count vs DMSO), 5 days (fraction); higher = more cells survive
AGI-6780 + OSI-027 = compound: O=C(Nc1cccc(C(F)(F)F)c1)Nc1cc(S(=O)(=O)NC2CC2)ccc1-c1ccsc1 [AGI-6780] + COc1cccc2cc(-c3nc([C@H]4CC[C@H](C(=O)O)CC4)n4ncnc(N)c34)[nH]c12 [OSI-027] (partner 0.5 µM)
How it was run: (§1)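 Relative viability equals treated-well nuclei counts divided by vehicle-well nuclei counts. Counts came from 4× images of lung cancer cell lines grown in 1536-well plates for 5 days after pin-tool dosing on the day after seeding. Dosing used one drug alone or a fixed anchor-drug dose plus five library-drug doses (not always all listed) in √10 steps, and values are medians of duplicate plates.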

AGI-6780 + Trametinib = compound: O=C(Nc1cccc(C(F)(F)F)c1)Nc1cc(S(=O)(=O)NC2CC2)ccc1-c1ccsc1 [AGI-6780] + CC(=O)Nc1cccc(-n2c(=O)n(C3CC3)c(=O)c3c(Nc4ccc(I)cc4F)n(C)c(=O)c(C)c32)c1 [Trametinib] (partner 0.02 µM)
How it was run: as §1

AGI-6780 + Phenformin = compound: O=C(Nc1cccc(C(F)(F)F)c1)Nc1cc(S(=O)(=O)NC2CC2)ccc1-c1ccsc1 [AGI-6780] + N=C(N)NC(=N)NCCc1ccccc1 [Phenformin] (partner 250 µM)
How it was run: as §1

AGI-6780 = compound: O=C(Nc1cccc(C(F)(F)F)c1)Nc1cc(S(=O)(=O)NC2CC2)ccc1-c1ccsc1 [AGI-6780]
How it was run: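 Viability is treated-well nuclei as a fraction of vehicle-well nuclei, reported as the median across plates. Before counting, lung cancer cell lines were kept overnight at 37 °C in 1536-well plates, pinned with five √10-spaced library-drug doses on vehicle-anchored plates, and left 5 days without medium change, then fixed, permeabilised and Hoechst-stained in one step, imaged at 4× and counted by MetaXpress. A plate passed only if control CV was below 25% and at least one doubling occurred.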

Row | Cell Line | relative viability (AGI-6780 + OSI-027; first compound 0.08 µM) | relative viability (AGI-6780 + OSI-027; first compound 0.253 µM) | relative viability (AGI-6780 + OSI-027; first compound 0.8 µM) | relative viability (AGI-6780 + OSI-027; first compound 2.53 µM) | relative viability (AGI-6780 + OSI-027; first compound 8 µM) | relative viability (AGI-6780 + Trametinib; first compound 0.08 µM) | relative viability (AGI-6780 + Trametinib; first compound 0.253 µM) | relative viability (AGI-6780 + Trametinib; first compound 0.8 µM) | relative viability (AGI-6780 + Trametinib; first compound 2.53 µM) | relative viability (AGI-6780 + Trametinib; first compound 8 µM) | relative viability (AGI-6780 + Phenformin; first compound 0.08 µM) | relative viability (AGI-6780 + Phenformin; first compound 0.253 µM) | relative viability (AGI-6780 + Phenformin; first compound 0.8 µM) | relative viability (AGI-6780 + Phenformin; first compound 2.53 µM) | relative viability (AGI-6780 + Phenformin; first compound 8 µM) | relative viability (AGI-6780; 0.08 µM) | relative viability (AGI-6780; 0.253 µM) | relative viability (AGI-6780; 0.8 µM) | relative viability (AGI-6780; 2.53 µM) | relative viability (AGI-6780; 8 µM)
1 | LXF-289 | 0.862 | 0.843 | 0.844 | 0.666 | 0.921 | 0.722 | 0.683 | 0.657 | 0.74 | 0.683 | 0.516 | 0.518 | 0.538 | 0.529 | 0.541 | 0.994 | 1.01 | 1.02 | 1.13 | 0.984
2 | NCI-H23 | 0.705 | 0.623 | 0.747 | 0.346 | 0.672 | 0.394 | 0.39 | 0.375 | 0.272 | 0.494 | 0.822 | 0.747 | 0.766 | 0.719 | 0.784 | 0.927 | 1.11 | 0.9 | 0.796 | 1.16
3 | NCI-H322M | 0.557 | 0.562 | 0.645 | 0.544 | 0.64 | – | 0.525 | 0.525 | 0.547 | 0.499 | 0.755 | 0.788 | 0.816 | 0.808 | 0.85 | 0.896 | 0.927 | 1.07 | 0.922 | 0.965
4 | NCI-H358 | 0.846 | 0.753 | 0.778 | 0.467 | 0.79 | 0.139 | 0.174 | 0.132 | 0.112 | 0.136 | 0.363 | 0.317 | 0.438 | 0.35 | 0.394 | 1.1 | 0.911 | 0.95 | 0.794 | 0.916
5 | NCI-H441 | 0.78 | 0.922 | 0.599 | 0.54 | 0.504 | 0.554 | 0.49 | 0.553 | 0.422 | 0.51 | 1.07 | 0.964 | 0.822 | 0.668 | 0.787 | 1.08 | 1.03 | 1.04 | 0.786 | 1.16
6 | NCI-H460 | 0.752 | 0.639 | 0.845 | 0.574 | 0.694 | 0.286 | 0.149 | 0.117 | 0.1 | 0.167 | 0.529 | 0.527 | 0.568 | 0.585 | 0.524 | 0.987 | 0.99 | 0.998 | 0.977 | 0.992
7 | NCI-H520 | 0.293 | 0.3 | 0.303 | 0.189 | 0.28 | 0.652 | 0.628 | 0.58 | 0.593 | 0.666 | 0.733 | 0.699 | 0.743 | 0.431 | 0.622 | 1.11 | 1.04 | 1.09 | 0.819 | 1.04
8 | NCI-H522 | 0.782 | 0.724 | 0.804 | 0.564 | 0.751 | 0.667 | 0.801 | 0.75 | – | 0.645 | 0.706 | 0.659 | 0.633 | 0.616 | 0.627 | 0.972 | 0.965 | 0.909 | 0.865 | 0.962
9 | NCI-H596 | 0.803 | 0.841 | 0.643 | – | 0.647 | 0.841 | 0.712 | 0.655 | 0.652 | 0.777 | 0.739 | 0.876 | 0.758 | – | 0.752 | 0.96 | 0.954 | 0.87 | 0.724 | 1.12
10 | NCI-H647 | 0.784 | 0.657 | 0.673 | 0.668 | 0.714 | 0.499 | 0.505 | 0.476 | 0.45 | 0.474 | 0.409 | 0.609 | 0.729 | 0.408 | 0.744 | 0.873 | 0.979 | 1.01 | 0.909 | 1.07
11 | NCI-H650 | 0.509 | 0.59 | 0.462 | 0.443 | 0.475 | 0.989 | 1.07 | 0.935 | 0.823 | 0.964 | 0.447 | 0.502 | 0.451 | 0.435 | 0.438 | 0.873 | 1.04 | 0.937 | 0.843 | 1.06
12 | NCI-H661 | 0.722 | 0.745 | 0.933 | 0.661 | 0.772 | 0.671 | 0.61 | 0.558 | 0.542 | 0.62 | 0.284 | 0.344 | 0.27 | 0.261 | 0.252 | 1 | 1 | 1.08 | 0.876 | 0.947
13 | NCI-H727 | 0.639 | 0.821 | 0.617 | 0.494 | 0.685 | 0.415 | 0.396 | 0.372 | 0.365 | 0.38 | 0.62 | 0.536 | 0.687 | 0.563 | 0.698 | 0.988 | 0.902 | 1.26 | 0.885 | 0.987
14 | NCI-H838 | 0.424 | 0.434 | 0.357 | 0.378 | 0.39 | 0.505 | 0.517 | 0.481 | 0.474 | 0.531 | 0.644 | 0.637 | 0.643 | 0.516 | 0.631 | 0.984 | 0.996 | 0.995 | 0.83 | 0.957
15 | NCI-H1355 | 0.444 | 0.456 | 0.422 | 0.303 | 0.401 | 0.426 | 0.496 | 0.465 | 0.354 | 0.404 | 0.485 | 0.451 | 0.484 | 0.393 | 0.448 | 1.02 | 1.07 | 1.03 | 0.823 | 1
16 | NCI-H1395 | 0.632 | 0.846 | 0.674 | 0.53 | 0.662 | 0.984 | 1.01 | 1.04 | 0.975 | 1.06 | 0.469 | 0.46 | 0.45 | 0.397 | 0.449 | 0.928 | 1 | 1.09 | 0.768 | 0.97
